Experimental data from patent US7501430B2 (ArQule, Inc., priority 2006, dated 2009).
Where two headings read alike, the source gives them in different places.

Biological target: T1, mutant B-RAF (Homo sapiens, UniProt P15056, V600E)
T1 construct: purchased Upstate (Charlottesville, Va.)
Test: RAF biochemical assay (MEK-1 phosphorylation, anti-phospho MEK1/2 detection)
Details: for inhibition at 10 µM: read-out: Mutant B-RAF % inhibition
Summary of the method: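 Detection is by ELISA: after a 30 min room-temperature reaction, plate-captured GST-MEK-1 is probed with anti-phospho MEK1/2, then an AP-tagged secondary antibody with fluorescent Attophos read-out.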

T1 sequence (P15056 whole entry V600E): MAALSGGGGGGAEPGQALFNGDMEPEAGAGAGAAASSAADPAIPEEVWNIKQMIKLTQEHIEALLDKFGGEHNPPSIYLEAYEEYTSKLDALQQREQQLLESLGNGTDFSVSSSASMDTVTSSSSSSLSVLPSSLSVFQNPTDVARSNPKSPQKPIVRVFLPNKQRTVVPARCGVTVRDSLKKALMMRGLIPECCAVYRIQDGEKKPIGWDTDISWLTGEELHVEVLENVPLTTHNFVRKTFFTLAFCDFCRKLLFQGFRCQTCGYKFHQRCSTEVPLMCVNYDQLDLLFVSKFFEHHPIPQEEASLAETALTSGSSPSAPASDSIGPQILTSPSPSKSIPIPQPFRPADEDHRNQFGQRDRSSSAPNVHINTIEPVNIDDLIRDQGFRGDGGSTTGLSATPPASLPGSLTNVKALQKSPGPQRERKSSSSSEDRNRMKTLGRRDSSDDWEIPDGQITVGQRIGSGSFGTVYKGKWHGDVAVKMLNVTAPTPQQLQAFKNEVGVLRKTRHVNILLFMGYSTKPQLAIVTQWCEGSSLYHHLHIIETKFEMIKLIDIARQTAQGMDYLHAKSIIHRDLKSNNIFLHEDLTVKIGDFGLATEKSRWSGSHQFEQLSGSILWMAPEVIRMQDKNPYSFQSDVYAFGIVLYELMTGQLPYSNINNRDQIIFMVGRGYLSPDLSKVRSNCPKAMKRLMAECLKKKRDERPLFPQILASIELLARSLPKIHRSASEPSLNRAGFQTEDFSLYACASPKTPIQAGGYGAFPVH

SMILES	IC50 (read-out: Mutant B-RAF IC50)	inhibition at 10 µM (@ 10 uM)	other results
COC(=O)CCc1ccc(S(=O)(=O)N2CCC(Nc3nccc(-c4c(-c5cccc(O)c5)nc5sccn45)n3)CC2)cc1 [Example 272, methyl 3-(4-{[4-({4-[6-(3-hydroxyphenyl)imidazo[2,1-b][1,3]thiazol-5-yl]pyrimidin-2-yl}amino)piperidin-1-yl]sulfonyl}phenyl)propanoate]	0.01 µM		
O=[N+]([O-])c1ccccc1-c1nc2sccn2c1-c1ccnc(NC2CCN(S(=O)(=O)c3ccc(Cl)cc3)CC2)n1 [Example 274, N-{1-((4-chlorophenyl)sulfonyl]piperidin-4-yl}-4-[6-(2-nitrophenyl)imidazo[2,1-b][1,3]thiazol-5-yl]pyrimidin-2-amine]	0.722 µM		
CN(C)c1ccc(NC(=O)N2CCC[C@@H](Nc3nccc(-c4c(-c5ccc(F)c(F)c5)nc5sccn45)n3)C2)cc1 [Example 86, (3R)-3-({4-[6-(3,4-difluorophenyl)imidazo[2,1-b][1,3]thiazol-5-yl]pyrimidin-2-yl}amino)-N-[4-(dimethylamino)phenyl]pip-eridine-1-carboxamide]		54%	
O=S(=O)(c1ccc(Cl)cc1)N1CCC[C@H](Nc2nccc(-c3c(-c4cccc(O)c4)nc4sccn34)n2)C1 [Example 140, 3-{5-[2-({(3S)-1-[(4-chlorophenyl)sulfonyl]piperidin-3-yl}amino)pyrimidin-4-yl]imidazo[2,1-b][1,3]thiazol-6-yl}phenol]	0.953 µM		
O=S(=O)(c1ccccc1)N1CCC[C@@H](Nc2nccc(-c3c(-c4cccc(O)c4)nc4occn34)n2)C1 [Example 398, 3-[5-(2-{[(3R)-1-(phenylsulfonyl)piperidin-3-yl]amino}pyrimidin-4-yl)imidazo[2,1-b][1,3]oxazol-6-yl]phenol]			IC50 (read-out: Mutant B-RAF IC50 (uM) or % inhibition): 0.042 µM
CC(C)c1ccc(S(=O)(=O)N2CCC[C@@H](Nc3nccc(-c4c(-c5ccc(F)cc5)nc5occn45)n3)C2)cc1 [Example 48, 4-[6-(4-fluorophenyl)imi-dazo[2,1-b][1,3]oxazol-5-yl]-N-{(3R)-1-[(4-isopropyl-phenyl)sulfonyl]piperidin-3-yl}pyrimidin-2-amine]			IC50: 3.02 µM
COc1ccc(S(=O)(=O)N2CCC[C@@H](Nc3nccc(-c4c(-c5ccc(F)cc5)nc5occn45)n3)C2)cc1 [Example 44, 4-[6-(4-fluorophenyl)imi-dazo[2,1-b][1,3]oxazol-5-yl]-N-{(3R)-1-[(4-methoxy-phenyl)sulfonyl]piperidin-3-yl}pyrimidin-2-amine]			Mutant B-RAF % inhibition (@ 10 uM): 45 @ 10 uM %
C/C(=N\O)c1cccc(-c2nc3sccn3c2-c2ccnc(N[C@@H]3CCCN(S(=O)(=O)c4ccc(Cl)cc4)C3)n2)c1 [Example 389, (1E)-1-(3-{5-[2-({(3R)-1-[(4-chlorophenyl)sulfonyl]piperidin-3-yl}amino)pyrimidin-4-yl]imidazo[2,1-b][1,3]thiazol-6-yl}phenyl)ethanone oxime]	0.034 µM		
NCC(=O)Nc1ccccc1-c1nc2sccn2c1-c1ccnc(N[C@@H]2CCCN(S(=O)(=O)c3ccc(Cl)cc3)C2)n1 [Example 141, N~1~-(2-{5-[2-({(3R)-1-[(4-chlorophenyl)sulfonyl]piperidin-3-yl}amino)pyrimidin-4-yl]imidazo[2,1-b][1,3]thiazol-6-yl}phenyl)glycinamide]	0.814 µM		
O=S(=O)(CC(F)(F)F)N1CCC[C@@H](Nc2nccc(-c3c(-c4cccc(O)c4)nc4sccn34)n2)C1 [Example 375, 3-{5-[2-({(3R)-1-[(2,2,2-trifluoroethyl)sulfonyl]piperidin-3-yl}amino)pyrimidin-4-yl]imidazo[2,1-b][1,3]thiazol-6-yl}phenol]	> 3 µM		
COc1cccc(-c2nc3sccn3c2-c2ccnc(N[C@@H]3CCN(S(=O)(=O)c4ccc(C(=O)O)cc4)C3)n2)c1 [Example 281, 4-{[(3R)-3-({4-[6-(3-methoxyphenyl)imidazo[2,1-b][1,3]thiazol-5-yl]pyrimidin-2-yl}amino)pyrrolidin-1-yl]sulfonyl)benzoic acid]	> 3 µM		
NC(=O)Oc1cccc(-c2nc3occn3c2-c2ccnc(N[C@@H]3CCCN(S(=O)(=O)c4ccc(Cl)cc4)C3)n2)c1 [Example 386, 3-{5-[2-({(3R)-1-[(4-chlorophenyl)sulfonyl]piperidin-3-yl}amino)pyrimidin-4-yl]imidazo[2,1-b][1,3]oxazol-6-yl}phenyl carbamate]	0.109 µM		
Fc1ccc(-c2nc3sccn3c2-c2ccnc(N[C@@H]3CCCNC3)n2)cc1 [Example 62]			inhibition at 10 µM: 45%
Cc1nc(-c2cccc(-c3nc4sccn4c3-c3ccnc(N[C@@H]4CCCNC4)n3)c2)no1 [Example 365, 4-{6-[3-(5-methyl-1,2,4-oxadia-zol-3-yl)phenyl]imidazo[2,1-b][1,3]thiazol-5-yl}-N-[(3R)-piperidin-3-yl]pyrimidin-2-amine]	0.03 µM		

More lines, main results first:

IC50 (read-out: Mutant B-RAF IC50)	inhibition at 10 µM (@ 10 uM)	SMILES	other results
0.018 µM		NC(=O)c1ccc(S(=O)(=O)N2CCC(Nc3nccc(-c4c(-c5cccc(O)c5)nc5occn45)n3)CC2)cc1 [Example 319, 4-{[4-({4-[6-(3-hydroxyphenyl)imidazo[2,1-b][1,3]oxazol-5-yl]pyrimidin-2-yl}amino)piperidin-1-yl]sulfonyl)benzamide]	
3.85 µM		O=C(COc1ccc(Cl)cc1)N1CCC(Nc2nccc(-c3c(-c4ccc(F)cc4)nc4occn34)n2)CC1 [Example 160, N-{1-[(4-chlorophenoxy)acetyl]piperidin-4-yl}-4-[6-(4-fluorophenyl)imidazo[2,1-b][1,3]oxazol-5-yl]pyrimidin-2-amine]	
	48%	COc1cccc(-c2nc3occn3c2-c2ccnc(N[C@@H]3CCCN(S(=O)(=O)c4ccc(Cl)cc4)C3)n2)c1 [Example 103, N-{(3R)-1-[(4-chlorophenyl)sulfonyl]piperidin-3-yl}-4-[6-(3-methoxyphenyl)imidazo[2,1-b][1,3]oxazol-5-yl]pyrimidin-2-amine]	
	38%	O=C(C1CCCCC1)N1CCC(Nc2nccc(-c3c(-c4ccc(F)cc4)nc4occn34)n2)CC1 [Example 164, N-[1-(cyclohexylcarbonyl)piperidin-4-yl]-4-[6-(4-fluorophenyl)imidazo[2,1-b][1,3]oxazol-5-yl]pyrimidin-2-amine]	
0.422 µM		Oc1cccc(-c2nc3sccn3c2-c2ccnc(NC3CCN(CC(O)COc4ccc(Cl)cc4)CC3)n2)c1 (centres unmarked) [Example 318, 3-{5-[2-({1-[3-(4-chlorophenoxy)-2-hydroxypropyl]piperidin-4-yl}amino)pyrimidin-4-yl]imidazo[2,1-b][1,3]thiazol-6-yl}phenol]	
	25%	O=S(=O)(c1cc(Cl)cc(Cl)c1)N1CCC[C@@H](Nc2nccc(-c3c(-c4ccc(F)cc4)nc4occn34)n2)C1 [Example 51, N-{(3R)-1-[(3,5-dichlorophenyl)sulfonyl]pip-eridin-3-yl}-4-[6-(4-fluorophenyl)imidazo[2,1-b][1,3]oxazol-5-yl]pyrimidin-2-amine]	
	36%	O=C(NCc1ccc(F)cc1)N1CCC[C@@H](Nc2nccc(-c3c(-c4ccc(F)cc4)nc4occn34)n2)C1 [Example 76, (3R)-N-(4-fluorobenzyl)-3-({4-[6-(4-fluorophenyl)imidazo[2,1-b][1,3]oxazol-5-yl]pyrimidin-2-yl}amino)piperidine-1-carboxamide]	
	42%	COc1ccc(NC(=O)N2CCC[C@@H](Nc3nccc(-c4c(-c5ccc(F)cc5)nc5occn45)n3)C2)c(OC)c1 [Example 69, (3R)-N-(2,4-dimethoxy-phenyl)-3-({4-[6-(4-fluorophenyl)imidazo[2,1-b][1,3]oxazol-5-yl]pyrimidin-2-yl}amino)piperidine-1-carboxamide]	
	45%	O=C(Nc1ccc(C(F)(F)F)cc1)N1CCC(Nc2nccc(-c3c(-c4ccc(F)cc4)nc4occn34)n2)CC1 [Example 182, 4-({4-[6-(4-fluorophenyl)imidazo[2,1-b][1,3]oxazol-5-yl]pyrimidin-2-yl}amino)-N-[4-(trifluoromethyl)phenyl]piperidine-1-carboxamide]	
0.022 µM		N#Cc1ccc(S(=O)(=O)N2CCC(Nc3nccc(-c4c(-c5cccc(O)c5)nc5occn45)n3)CC2)cc1 [Example 317, 4-{[4-({4-[6-(3-hydroxyphenyl)imidazo[2,1-b][1,3]oxazol-5-yl]pyrimidin-2-yl}amino)piperidin-1-yl]sulfonyl}benzonitrile]	
	95%	O=S(=O)(c1ccc(Cl)cc1)N1CC[C@H](Nc2nccc(-c3c(-c4ccc(F)cc4)nc4sccn34)n2)C1 [Example 276, N-{(3S)-1-[(4-chlorophenyl)sulfonyl]pyrrolidin-3-yl}-4-[6-(4-fluorophenyl)imidazo[2,1-b][1,3]thiazol-5-yl]pyrimidin-2-amine]	
	11%	NCC(=O)N1CCC[C@@H](Nc2nccc(-c3c(-c4ccc(F)cc4)nc4occn34)n2)C1 [Example 35, N-[(3R)-1-(aminoacetyl)piper-idin-3-yl]-4-[6-(4-fluorophenyl)imidazo[2,1-b][1,3]oxazol-5-yl]pyrimidin-2-amine]	
	45%	CN(C)c1ccc(C(=O)N2CCC(Nc3nccc(-c4c(-c5ccc(F)cc5)nc5occn45)n3)CC2)cc1 [Example 222, N-{1-[4-(dimethylamino)benzoyl]piperidin-4-yl}-4-[6-(4-fluorophenyl)imidazo[2,1-b][1,3]oxazol-5-yl]pyrimidin-2-amine]	
	44%	N#Cc1ccc(S(=O)(=O)N2CCC(Nc3nccc(-c4c(-c5ccc(F)cc5)nc5occn45)n3)CC2)cc1 [Example 240, 4-{[4-({4-[6-(4-fluorophenyl)imidazo[2,1-b][1,3]oxazol-5-yl]pyrimidin-2-yl}amino)piperidin-1-yl]sulfonyl}benzonitrile]	
	40%	CC(=O)Nc1nc(C)c(S(=O)(=O)N2CCC(Nc3nccc(-c4c(-c5ccc(F)cc5)nc5occn45)n3)CC2)s1 [Example 228, N-(5-{(4-({4-[6-(4-fluorophenyl)imidazo[2,1-b][1,3]oxazol-5-yl]pyrimidin-2-yl}amino)piperidin-1-yl]sulfonyl}-4-methyl-1,3-thiazol-2-yl)acetamide]	
